These results are taken from patent publication US20100267750A1, “METHODS AND COMPOSITIONS FOR TREATING PAIN” (priority 2005, published 2010).

Data set [1] deals with carrageenan-induced inflammation (paw volume). Nature of the data set: Carrageenan model of acute inflammatory pain. It counts as in vivo, rat. Conditions: IP, 30-60 minutes before testing. The protocol: In this study, the drug administered was either a TRPA1 inhibitor or the non-steroidal anti-inflammatory diclofenac. Following administration of both carrageenan and drug or vehicle control, paw volume was measured and used to assess decreased inflammation.

Data set [2] has as its system CFA induced thermal hyperalgesia. Briefly: CFA model of inflammatory pain. The protocol: FIG. 4 summarizes data obtained following testing of Compound 200 in the CFA model. Naive rats were pretested for sensitivity to a heat stimulus in the Hargreaves apparatus. The next day, 100 μL of complete Freund's adjuvant (CFA) was injected into the plantar surface of the right hindpaw. Two days later, in the morning, the rats were again pretested. In the afternoon, rats were injected with either vehicle control or with drug (TRPA1 inhibitor 200 or the non-steroidal anti-inflammatory diclofenac). Drugs or vehicle were injected intraperitoneally, and 45 minutes later rats were tested for hyperalgesia by applying the heat source to the CFA injected and uninjected hindpaw and measuring latency to withdrawal.

Data set [3] has as its system bradykinin induced tactile allodynia. Briefly: Bradykinin induced pain model. It counts as in vivo, rat. The protocol:
As outlined above, the bradykinin model involves an intraplantar injection of a 5 ng/uL solution of bradykinin. Injection of the bradykinin solution typically causes a rapid sensitization. Sensitization is measured by assessing the thermal escape latency of the injected paw in response to a mild thermal stimulus delivered by a modified Hargreaves apparatus. FIGS. 1a and 1b summarize data obtained following testing of Compound 200 in the bradykinin model. This study examined the antinociceptive effects of 200 mg/kg, 50 mg/kg, and 12.5 mg/kg intraperitoneal Compound 200 on bradykinin induced tactile allodynia. […] Inhibitor or vehicle were injected intraperitoneally (IP). […] Throughout the study, general behavioral assessments were made during each period of observation. Observations included tactile allodynia (vocalization/agitation induced by light touch applied to the body surface), spontaneous vocalization, biting and chewing of body surface, loss of hind limb placing and stepping reflex, loss of hind limb weight bearing, and loss of righting reflex. Additionally, mechanical allodynia was assessed and measured. The results provided in FIGS. 1a and 1b are based on assessment of mechanical allodynia.

For data set [4], the system named is bladder pressure in BOO rats. Nature of the data set: Partial bladder outlet obstruction (BOO) model of incontinence. As to conditions: intravesical infusion.
Description: Efficacy of the varying doses of TRPA1 inhibitory compound were compared to controls administered excipients alone (sham control). Efficacy was also compared to rats administered a positive control, such as atropine.
Female Sprague Dawley rats were used in these studies. Rats underwent surgical partial bladder outlet obstruction (BOO) or sham surgery. Five weeks after BOO (or sham) surgery, an intravesical catheter was surgically implanted into the dome of the bladder for conducting urodynamic studies. One week after catheter implantation (6 weeks after BOO or sham), urodynamic studies began. […] An analytic balance beneath the wire-bottom animal cage measured the amount of urine voided during continuous cystometry. […]
For each CMG cycle, the following parameters were assessed: infused volume (the amount of saline or drug infused for each CMG cycle); void volume (the amount of urine voided by the animal for each CMG cycle); minimum pressure (minimum pressure during filling); threshold pressure (pressure prior to micturition when bladder pressure begins to rise steeply); average pressure (average pressure during filling and before threshold); maximum pressure; intermicturition interval (time between two subsequent voiding events); urine flow rate index.
The test system of data set [5] is formalin induced paw flinching. Briefly: Formalin model of pain. Type of data set: in vivo, rat. As to conditions: 2% formalin intraplantar, drug 15 min before. The protocol:
As outlined above, the formalin model involves injection of a formalin solution intradermally or […]. Injection of formalin solution invokes a biphasic response, and thus provides a model for both nociceptive and inflammatory pain. The formalin model can be used to evaluate the effectiveness of an exemplary TRPA1 inhibitor in the treatment of pain. […] Briefly, the following protocol was followed. Male Holtzmann rats received intraplantar injections of 50 μL of 2% formalin. Paw flinching was detected by an automated sensor detecting movement of a small metal band placed on the injected hind paw. Drug or vehicle was administered approximately 15 minutes prior to the injection of formalin. The animal's response to injection of the irritant was measured by counting flinches per minutes during the Early Phase (the first 5 minutes following injection of formalin), during the Late Phase (approximately 30 minutes after injection of formalin), and during the intervening pain free phase. In FIG. 2, the right most bar for each data set (Early Phase and Late Phase) represents administration of vehicle alone and the left most bar represents administration of gabapentin. […]

Data set [6] can be described thus: Plasma levels / pharmacokinetics in male Sprague-Dawley rat. It counts as in vivo. As to conditions: oral suspension 12 mg/kg. The protocol:
Compound 200 plasma levels were determined via HPLC/MS/MS following a single intravenous bolus dose of 0.9 mg/kg, an intraperitoneal dose of 12 mg/kg (suspension), and an oral dose of 12 mg/kg (suspension) in the male Sprague-Dawley rat. […] For intraperitoneal administration, Compound 200 was formulated as a uniform suspension in CMC (carboxymethylcellulose) at a target concentration of 1 mg/mL and administered at a dose volume of 10 mL/kg. For oral administration, Compound 200 was formulated as a uniform suspension in CMC (carboxymethylcellulose), at a target concentration of 1 mg/mL, administered by gavage, at a dose volume of 10 mL/kg, to the conscious, fasted, male Sprague-Dawley rat.

Another data set deals with T1, hTRPA1 (Homo sapiens, UniProt O75762, K186N).
T1 construct: expressed in transfected cells; host or cells: HEK293/TREx (Invitrogen), stably transfected, tetracycline-induced
Briefly: hTRPA1 Fluo4 calcium flux assay in HEK293/TREx cells. Type of data set: cell-based. As to conditions: Table 2; read-out: hTRPA1 Fluor IC50. The source says:
The assay depended on detection of the rise in intracellular Ca^2+ concentration ([Ca^2+]i) following channel activation in cells inducibly expressing the TRPA1 channel. Ca^2+ rise was quantified with the use of fluorescent Ca^2+ indicators that were loaded into cells and thereafter indicated the [Ca^2+]i. Ca^2+ influx followed activation of the TRPA1 channel. Compounds inhibiting the [Ca^2+]i rise were considered hits for further investigation.
These cells were maintained in the growth medium recommended by the manufacturer supplemented with 100 μg/ml hygromycin to promote retention of the TRPA1 construct. After growing to near confluency, cells were plated at a density of ˜25,000 cells/well in 384 well CellBind plates (Corning) in the presence of 1 μg/ml tetracycline, and allowed to grow for 20-30 hrs. A nearly confluent monolayer resulted. […] These controls defined a screening window, and “hits” were defined as those compounds inhibiting the fluorescence response by at least 40%. IC50 values were determined for compounds defined as “hits.” The Fluo4 cell-based fluorescence assay was used to determine the intracellular Ca^2+ concentration in the presence of varying drug concentration. […]
A general note: A change in cytosolic calcium serves as a functional read-out for many receptors and channels.

What is called IC50 is the concentration that gives 50% inhibition.

T1 sequence (O75762 whole entry K186N): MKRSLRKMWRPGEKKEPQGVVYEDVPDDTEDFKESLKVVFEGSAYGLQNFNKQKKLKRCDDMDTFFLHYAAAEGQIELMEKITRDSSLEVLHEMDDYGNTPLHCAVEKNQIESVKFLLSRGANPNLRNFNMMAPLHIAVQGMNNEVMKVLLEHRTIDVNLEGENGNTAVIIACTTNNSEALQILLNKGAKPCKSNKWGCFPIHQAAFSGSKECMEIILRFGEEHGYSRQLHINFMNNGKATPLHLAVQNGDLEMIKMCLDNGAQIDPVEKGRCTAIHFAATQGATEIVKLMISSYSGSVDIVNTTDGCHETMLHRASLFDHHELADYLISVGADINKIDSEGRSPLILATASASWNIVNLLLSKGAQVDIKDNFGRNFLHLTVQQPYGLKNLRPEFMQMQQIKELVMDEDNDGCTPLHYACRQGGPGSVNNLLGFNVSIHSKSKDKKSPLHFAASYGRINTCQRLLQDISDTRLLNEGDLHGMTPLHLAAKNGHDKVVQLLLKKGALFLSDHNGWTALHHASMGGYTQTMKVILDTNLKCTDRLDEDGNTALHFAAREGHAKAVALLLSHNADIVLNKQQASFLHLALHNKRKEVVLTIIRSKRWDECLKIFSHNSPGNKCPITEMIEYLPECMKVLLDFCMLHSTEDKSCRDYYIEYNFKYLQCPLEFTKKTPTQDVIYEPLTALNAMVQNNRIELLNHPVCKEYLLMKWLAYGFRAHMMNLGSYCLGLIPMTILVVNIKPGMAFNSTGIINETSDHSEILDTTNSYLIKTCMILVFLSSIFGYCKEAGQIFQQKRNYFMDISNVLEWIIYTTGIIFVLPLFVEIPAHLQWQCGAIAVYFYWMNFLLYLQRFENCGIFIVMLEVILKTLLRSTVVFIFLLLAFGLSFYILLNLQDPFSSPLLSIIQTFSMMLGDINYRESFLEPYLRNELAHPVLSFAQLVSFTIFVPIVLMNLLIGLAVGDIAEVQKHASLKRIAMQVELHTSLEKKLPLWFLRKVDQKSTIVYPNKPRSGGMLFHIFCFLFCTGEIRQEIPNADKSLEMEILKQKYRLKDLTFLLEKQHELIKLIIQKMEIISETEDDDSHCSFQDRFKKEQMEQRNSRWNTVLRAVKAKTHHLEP

Turning to `CC(C)c1ccc(NC(=O)Cn2cnc3c2c(=O)n(C)c(=O)n3C)cc1` [Compound 200, 2-(1,3-dimethyl-2,6-dioxo-1,2,3,6-tetrahydropurin-7-yl)-N-(4-isopropylphenyl)acetamide], the “paw volume (inflammation)” value in data set [1] was “decreased paw volume”. Also, in data set [2] (IP, tested 45 minutes later), the “control paw (uninflamed) sensation” value was “not affected”; the “efficacy compared with diclofenac” value was “superior to diclofenac”; the “thermal hyperalgesia, CFA injected paw” value is given as “reduced thermal hyperalgesia”. Further, in data set [2] (rat, in vivo, 45 min), the toxicity entry was “without toxicity”. Further, the “effect on mechanical threshold after bradykinin injection” value in data set [3] (IP 12.5, 50, 200 mg/kg, 30 min before bradykinin) is recorded as “dose dependent effect”. In addition, the behavioral parameters entry in data set [3] (IP doses up to 200 mg/kg) was “no changes”. In addition, the sedation entry in data set [3] (highest dose (200 mg/kg IP)) was “only mild sedation was observed in 3 of 8 rats”. Moreover, in data set [4], the maximum bladder pressure entry is “decreased” and the threshold bladder pressure entry was “decreased”. In data set [5], the “flinches per minute, Early Phase” value is reported as “substantially reduced” and the “flinches per minute, Late Phase” value was “substantially reduced”. The “time at which Cmax occurred” value in data set [6] is 45 min.

For `COC(=O)c1ccc(C)c(NC(=O)Cn2cnc3c2c(=O)n(C)c(=O)n3C)c1` [Compound 346], the IC50 on hTRPA1 is ≤ 30 µM.
